Assay results: US9980943B2, “Methods of treating muscular dystrophy” (BOARD OF REGENTS OF THE NEVADA SYSTEM OF HIGHER EDUCATION, …, priority 2013, dated 2018)

Assays:
Type in all cases: cell-based, mouse
[1] = test system: α7 integrin (LacZ reporter in α7βgal+/− myoblasts); assay: Myoblast α7+/LacZ integrin FDG assay (Burkin assay in myoblasts, 96-well); settings: α7+/LacZ myoblasts, 96-well; for fold induction at 0.5 µM / fold induction at 1 µM / fold induction at 5 µM / fold induction at 10 µM / fold induction at 20 µM / fold induction at 40 µM: Mus musculus, Myoblast, 48 h, read-out: Burkin Assay in Myoblasts, signal relative to DMSO
[2] = test system: α7 integrin (LacZ reporter in α7+/LacZ myotubes); assay: Myotube α7 integrin FDG assay (Burkin assay in myotubes, 96-well); settings: myotubes; for fold induction at 0.5 µM / fold induction at 1 µM / fold induction at 5 µM / fold induction at 10 µM / fold induction at 20 µM / fold induction at 40 µM: Mus musculus, Myotube, read-out: Burkin Assay in Myotubes, α7 integrin LacZ reporter signal relative to DMSO
[3] = test system: β-galactosidase in CMV-LacZ C2C12 myotubes; assay: CMV-LacZ secondary screen in C2C12 myotubes (β-Gal stabilizing assay); settings: for fold induction at 5 µM / fold induction at 10 µM / fold induction at 20 µM / fold induction at 40 µM: Mus musculus; for fold induction at 5 µM: C2C12, read-out: CMV-LACZ in Myotubes, signal relative to DMSO, 5 uM; for fold induction at 5 µM / fold induction at 10 µM / fold induction at 20 µM / fold induction at 40 µM / CMV-LACZ in Myotubes, signal relative to DMSO: C2C12 CMV-LacZ myotubes, fold relative to DMSO; for fold induction at 10 µM: C2C12, read-out: CMV-LACZ in Myotubes, signal relative to DMSO, 10 uM; for fold induction at 20 µM: C2C12, read-out: CMV-LACZ in Myotubes, signal relative to DMSO, 20 uM; for fold induction at 40 µM: C2C12, read-out: CMV-LACZ in Myotubes, signal relative to DMSO, 40 uM; for CMV-LACZ in Myotubes (β-galactosidase activity relative to DMSO): CMV-LacZ C2C12 myotubes, 96-well format
Summary of the method: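 First, C2C12 myoblasts were transfected with a linearized CMV-LACZ vector and clonal lines selected by FDG β-gal assay. Then cells were exposed to compounds at 0.5, 1, 5, 10, 20 and 40 μM in 96-well format, two replicates each, and β-gal measured.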

Row | SMILES | Burkin Assay in Myoblasts, value relative to DMSO ([1]; 0.5 uM) | Burkin Assay in Myoblasts, value relative to DMSO ([1]; 1 uM) | Burkin Assay in Myoblasts, value relative to DMSO ([1]; 5 uM) | Burkin Assay in Myoblasts, value relative to DMSO ([1]; 10 uM) | Burkin Assay in Myoblasts, value relative to DMSO ([1]; 20 uM) | Burkin Assay in Myoblasts, value relative to DMSO ([1]; 40 uM) | Burkin Assay in Myotubes (signal relative to DMSO) ([2]; 0.5 uM) | Burkin Assay in Myotubes (signal relative to DMSO) ([2]; 1 uM) | Burkin Assay in Myotubes (signal relative to DMSO) ([2]; 5 uM) | Burkin Assay in Myotubes (signal relative to DMSO) ([2]; 10 uM) | Burkin Assay in Myotubes (signal relative to DMSO) ([2]; 20 uM) | Burkin Assay in Myotubes (signal relative to DMSO) ([2]; 40 uM) | CMV-LACZ in Myotubes (β-galactosidase activity relative to DMSO) ([3]; 5 uM) | CMV-LACZ in Myotubes (β-galactosidase activity relative to DMSO) ([3]; 10 uM) | CMV-LACZ in Myotubes (β-galactosidase activity relative to DMSO) ([3]; 20 uM) | CMV-LACZ in Myotubes (β-galactosidase activity relative to DMSO) ([3]; 40 uM) | also measured
1 | COc1nccc(NCc2ccccc2)c1C#N [MLS001077207-01] |  |  |  |  |  |  |  |  |  |  |  |  |  |  |  |  | fold induction at 0.5 µM ([1]; 0.5 uM): 0.97; fold induction at 1 µM ([1]; 1 uM): 1.01; fold induction at 5 µM ([1]; 5 uM): 1.05; fold induction at 10 µM ([1]; 10 uM): 1.06; fold induction at 20 µM ([1]; 20 uM): 1.01; fold induction at 40 µM ([1]; 40 uM): 1.15; fold induction at 0.5 µM ([2]; 0.5 uM): 0.985; fold induction at 1 µM ([2]; 1 uM): 1.06; fold induction at 5 µM ([2]; 5 uM): 1.42; fold induction at 10 µM ([2]; 10 uM): 1.15; fold induction at 20 µM ([2]; 20 uM): 1.01; fold induction at 40 µM ([2]; 40 uM): 1.21; fold induction at 5 µM [3]: 0.952; fold induction at 10 µM [3]: 1.04; fold induction at 20 µM [3]: 0.866; fold induction at 40 µM [3]: 0.782
2 | COCCN1C=C(C(=O)OC)C(c2ccccc2Cl)C(C(=O)OC)=C1 [MLS000718886-01] | 1.052 | 0.9394 | 1.087 | 0.9661 | 0.9124 | 0.8139 | 0.9819 | 0.9591 | 1.068 | 0.9981 | 0.938 | 0.9785 | 0.9787 | 0.9804 | 0.8798 | 0.8355 | 
3 | COc1ccc(-c2cc(COc3ccccc3)on2)cc1 [MLS000695955-01] |  |  |  |  |  |  |  |  |  |  |  |  |  |  |  |  | fold induction at 0.5 µM ([1]; 0.5 uM): 0.902; fold induction at 1 µM ([1]; 1 uM): 0.871; fold induction at 5 µM ([1]; 5 uM): 1.08; fold induction at 10 µM ([1]; 10 uM): 1.06; fold induction at 20 µM ([1]; 20 uM): 0.961; fold induction at 40 µM ([1]; 40 uM): 1.03; fold induction at 0.5 µM ([2]; 0.5 uM): 0.945; fold induction at 1 µM ([2]; 1 uM): 1.03; fold induction at 5 µM ([2]; 5 uM): 1.15; fold induction at 10 µM ([2]; 10 uM): 1.32; fold induction at 20 µM ([2]; 20 uM): 1.23; fold induction at 40 µM ([2]; 40 uM): 1.39; fold induction at 5 µM [3]: 0.789; fold induction at 10 µM [3]: 0.896; fold induction at 20 µM [3]: 0.992; fold induction at 40 µM [3]: 0.93
4 | COc1ccccc1CNS(=O)(=O)c1ccc(Cl)s1 [MLS001175449-01] | 1.0562 | 1.036 | 1.045 | 0.9949 | 1.066 | 0.7564 | 1.1188 | 1.016 | 1.156 | 0.9366 | 1.151 | 0.8041 |  |  |  |  | CMV-LACZ in Myotubes, signal relative to DMSO ([3]; 5 uM): 0.8534; CMV-LACZ in Myotubes, signal relative to DMSO ([3]; 10 uM): 0.9034; CMV-LACZ in Myotubes, signal relative to DMSO ([3]; 20 uM): 0.889; CMV-LACZ in Myotubes, signal relative to DMSO ([3]; 40 uM): 0.8671
5 | COc1ccc(-n2c(SCC(=O)Nc3cccc(C(=O)O)c3)nnc2-c2ccco2)cc1 [MLS001215742-01] | 0.887 | 0.926 | 1.04 | 1.105 | 0.7682 | 0.8165 | 1.02 | 1.104 | 0.9803 | 1.155 | 0.8384 | 0.9687 | 1.026 | 1.1034 | 0.9254 | 0.9851 | 
6 | NS(=O)(=O)c1ccc(NC(=O)c2cc(-c3ccccc3O)n[nH]2)cc1 [MLS001214443-01] | 0.9203 | 0.8074 | 0.7787 | 0.8173 | 0.9132 | 0.9313 | 0.8262 | 0.9018 | 0.9442 | 1.193 | 1.154 | 1.083 | 0.9737 | 1.072 | 0.9507 | 0.9022 | 
7 | O=C(/C(=C(/[O-])c1ccccc1)[n+]1ccccc1)c1ccc([N+](=O)[O-])cc1 [MLS000705922-01] | 0.9627 | 1.02 | 0.7282 | 0.7283 | 0.8892 | 0.8783 | 0.8984 | 1.137 | 0.8511 | 0.9544 | 0.9072 | 1.039 | 0.8776 | 0.9306 | 0.9302 | 0.9947 | 
